From US4552879A, “Benzoheterocyclic compounds and pharmaceutical composition thereof” (Otsuka Pharmaceutical Co., Ltd., priority 1980, dated 1985)
Converted amounts (≈) assume the structure as drawn. Where two headings read alike, the source gives them in different places.

Columns and labels:
Type in all cases: cell-based
[1] = tested on: Staphyloccus aureus Smith; assay: Minimum inhibitory concentration, serial dilution method on agar plate
[2] = tested on: Pseudomonas aeruginosa E-2; assay: as above; conditions: Pseudomonas aeruginosa, read-out: Minimum Inhibitory Concentration
[3] = tested on: Staphylococcus aureus 7447; assay: as above
[4] = tested on: Bacillus anthracis; assay: microbe, parasite or virus in culture
[5] = tested on: Staphylococcus aureus ATCC 12692; assay: Minimum inhibitory concentration, serial dilution method on agar plate
[6] = tested on: Staphylococcus aureus FDA 209 P; assay: as above; conditions: Staphylococcus aureus, read-out: Minimum Inhibitory Concentration
[7] = tested on: Staphylococcus aureus IFO 3761; assay: as above
[8] = tested on: Staphylococcus aureus Newmann; assay: as above
[9] = tested on: Bacillus cereus IFO 3446; assay: as above

With `CC1CCc2c(N3CCC(O)CC3)c(F)cc3c(=O)c(C(=O)O)cn1c23` (stereo not drawn) [Compound 1, 9-Fluoro-8-(4-hydroxy-1-piperidyl)-5-methyl-6,7-dihydro-1-oxo-1H,5H-benzo[ij]quinolizine-2-carboxylic acid] the “Minimum Inhibitory Concentration” value ([1]; 1×10^6 cells/ml) was 0.05 µg/mL, the MIC ([1]; 1×10^8 cells/ml) was 0.05 µg/mL (≈ 0.139 µM) and the MIC ([2]; E2, 1×10^6 cells/ml) was 6.25 µg/mL (≈ 17.3 µM). For the same molecule, the MIC ([2]; E2, 1×10^8 cells/ml) was 6.25 µg/mL (≈ 17.3 µM), the “Minimum Inhibitory Concentration” value ([3]; 1×10^6 cells/ml) was 0.05 µg/mL and the MIC ([3]; Staphylococcus aureus, 7447, 1×10^8 cells/ml) was 0.05 µg/mL (≈ 0.139 µM). The “Minimum Inhibitory Concentration” value ([4]; 1×10^6 cells/ml) was 0.05 µg/mL, the MIC ([4]; Bacillus anthracis, read-out: Minimum Inhibitory Concentration) was 0.05 µg/mL (≈ 0.139 µM) and the “Minimum Inhibitory Concentration” value ([5]; 1×10^6 cells/ml) was 0.05 µg/mL. It also gave an MIC ([5]; Staphylococcus aureus, ATCC12692, 1×10^8 cells/ml) of 0.05 µg/mL (≈ 0.139 µM), an MIC ([6]; FDA209, 1×10^6 cells/ml) of at most 0.025 µg/mL and an MIC ([6]; FDA209, 1×10^8 cells/ml) of at most 0.05 µg/mL. For the same molecule, the MIC ([7]; IFO3761, 1×10^6 cells/ml) was 0.024 µg/mL (≈ 0.0666 µM), the MIC ([7]; IFO3761, 1×10^8 cells/ml) was 0.1 µg/mL (≈ 0.277 µM) and the MIC ([8]; 1×10^6 cells/ml) was 0.024 µg/mL (≈ 0.0666 µM). For the same molecule, the MIC ([8]; 1×10^8 cells/ml) was 0.05 µg/mL (≈ 0.139 µM), the “Minimum Inhibitory Concentration” value ([9]; 1×10^6 cells/ml) was 0.10 µg/mL and the MIC ([9]; Bacillus cereus, IFO3446, 1×10^8 cells/ml) was 0.1 µg/mL (≈ 0.277 µM).
